Test results: US4822796A, “1-((Phenothiazin-10-yl)alkyl)-alpha-phenyl-4-piperidinemethanols and pharmaceutical use” (priority 1987, dated 1989)

How the values were obtained:
[1] = modified phenyl-p-quinone writhing assay in mice (analgesia); type: in vivo, mice (male, Charles River, CD-1)
Protocol: The procedure employed to determine analgesic utility is a modification of the phenyl-p-quinone writhing assay in mice, a standard assay for analgesia [Proc. Soc. Exptl. Bio. Med., 95 729 (1957)]. In the modified procedure phenyl-p-benzoquinone (Eastman, 12.5 mg) is dissolved in 5 ml of 95% ethanol and the solution is diluted to a total volume of 100 ml with distilled water. The solution is administered to the subject mice […] at a dose of 10 ml per kg of body weight. A characteristic "writh", an inward rotation of one or more feet with twisting and turning of the trunk, drawing in of the abdominal wall, lordosis and arching of the back, is produced.
A total of 28 male mice (Charles River, CD-1), weighing 18 to 30 grams, are employed for a time response. The subject animals receive food and water ad libitum. Test compounds are dissolved in distilled water, or suspended in distilled water containing one drop of a suitable surfactant, such as Tween-80.
Four groups of five animals (20 animals) are given the test compound subcutaneously at 15, 30, 45 and 60 minutes prior to administration of the phenyl-p-quinone. Four control groups of 2 animals (8 animals) receive an equal volume of the vehicle. […] The number of writhes for each animal is recorded. […]

[2] = climbing mice assay (antipsychotic activity; inhibition of apomorphine induced climbing); type: in vivo, mice (CK-1 male); conditions: Mus musculus, ip, 30 minutes prior to apomorphine 1.5 mg/kg s.c., read-out: Anti-Psychotic Activity (ED50), 50% inhibition of apomorphine induced climbing
Excerpt: The subject CK-1 male mice (23-27 grams) are group-housed under standard laboratory conditions. The mice are individually placed in wire mesh stick cages (4"×4" by 10") and are allowed one hour for adaptation and exploration of the new environment.
Mice consistently climbing before the injection of apomorphine are discarded.
With full-developed apomorphine climbing, the animals are hanging onto the cage walls, rather motionless, over longer periods of time. By contrast, climbs due to mere motor stimulation usually last only a few seconds.

Compound | Analgesic Activity (% Inhibition of Writhing) ([1]; at 20 mg/kg, subcutaneous (route per method)) | ED50 [2] | Analgesic Activity (% Inhibition of Writhing) ([1]; at 1.3 mg/kg sc, standard)
CSc1ccc2c(c1)N(CCCN1CCC(C(O)c3ccc(F)cc3)CC1)c1ccccc1S2 (stereo not drawn) [α-(4-Fluorophenyl)-1-[3-(2-methylthiophenothiazin-10-yl)propyl]-4-piperidinemethanol] | 43% | 8.6 mg/kg | 
CSc1ccc2c(c1)N(CCC1CCCCN1C)c1ccccc1S2 (stereo not shown) [Thioridazine] |  | 4.1 mg/kg | 
CC(C)=CCN1CCC2(C)c3cc(O)ccc3CC1C2C (stereo not shown) [Pentazocine] |  |  | 50%
